Among the data in patent US20230128402A1 (The Trustees of Princeton University, priority 2020, published 2023) are IC50 values, retold here.

One assay addresses T1, ALDH1a3 (Homo sapiens, UniProt P47895).
T1 sequence (P47895 1-512): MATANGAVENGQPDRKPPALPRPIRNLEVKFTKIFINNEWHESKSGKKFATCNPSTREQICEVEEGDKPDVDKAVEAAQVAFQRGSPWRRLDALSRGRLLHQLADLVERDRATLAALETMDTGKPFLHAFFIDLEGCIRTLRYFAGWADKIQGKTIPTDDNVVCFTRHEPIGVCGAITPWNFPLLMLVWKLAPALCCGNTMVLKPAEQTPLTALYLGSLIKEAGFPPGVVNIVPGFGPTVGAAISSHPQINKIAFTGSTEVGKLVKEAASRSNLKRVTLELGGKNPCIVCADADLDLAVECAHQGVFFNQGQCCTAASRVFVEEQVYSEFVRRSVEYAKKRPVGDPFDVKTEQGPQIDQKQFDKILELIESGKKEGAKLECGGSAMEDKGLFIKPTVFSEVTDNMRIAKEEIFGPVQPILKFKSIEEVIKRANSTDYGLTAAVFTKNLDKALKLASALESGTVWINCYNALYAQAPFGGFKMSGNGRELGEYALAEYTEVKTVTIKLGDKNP
Put plainly: Aldh1a3 enzyme inhibition assay, recombinant hALDH1a3. The format is biochemical. Further details: made in house; host or cells: E. coli BL21-DE3, pET-Aldh1a3. To be noted: resorufin fluorescence, 20° C. From the text:
(§1) Recombinant enzyme and inhibitor added immediately before assay. Reaction rate measured by resorufin fluorescence.

A further assay concerns the target T2, mALDH1a3 (Mus musculus, UniProt Q9JHW9).
T2 construct: made in house; host or cells: E. coli BL21-DE3, pET-Aldh1a3
T2 sequence (Q9JHW9 1-512): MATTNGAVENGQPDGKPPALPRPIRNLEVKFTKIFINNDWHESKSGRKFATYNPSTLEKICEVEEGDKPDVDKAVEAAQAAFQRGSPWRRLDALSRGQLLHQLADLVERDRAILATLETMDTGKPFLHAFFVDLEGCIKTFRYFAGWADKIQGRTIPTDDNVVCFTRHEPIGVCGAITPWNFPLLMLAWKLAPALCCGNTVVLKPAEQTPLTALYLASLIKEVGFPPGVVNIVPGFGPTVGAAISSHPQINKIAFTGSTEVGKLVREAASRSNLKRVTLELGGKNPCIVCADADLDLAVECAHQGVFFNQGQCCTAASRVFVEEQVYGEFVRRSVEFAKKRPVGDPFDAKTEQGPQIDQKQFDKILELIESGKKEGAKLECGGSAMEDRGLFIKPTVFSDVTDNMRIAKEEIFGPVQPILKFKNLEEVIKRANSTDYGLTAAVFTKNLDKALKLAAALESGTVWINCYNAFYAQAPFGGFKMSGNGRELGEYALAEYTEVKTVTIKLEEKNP
Briefly: Aldh1a3 enzyme inhibition assay, recombinant mALDH1a3. Type of assay: biochemical. To be noted: resorufin fluorescence, 20° C.
Excerpt: as §1

For `CC1(C)Cc2cc(Nc3cnc4ccccc4n3)ccc2NC1=O` [Compound 92, 3,3-dimethyl-6-(quinoxalin-2-ylamino)-1,4-dihydroquinolin-2-one], the IC50 at ALDH1a3 and on mALDH1a3 was 0.1 to 0.25 µM throughout.

Turning to `CC1(C)Cc2cc(Nc3ncc4ccccc4n3)ccc2NC1=O` [Compound 93, 3,3-dimethyl-6-(quinazolin-2-ylamino)-1,4-dihydroquinolin-2-one], the IC50 at ALDH1a3 and at mALDH1a3 was 0.25 to 1 µM throughout.

For the molecule `CC1(C)Cc2cc(Nc3ccc4ccncc4n3)ccc2NC1=O` [Compound 94, 3,3-dimethyl-6-(1,7-naphthyridin-2-ylamino)-1,4-dihydroquinolin-2-one], the IC50 is 1 to 5 µM on ALDH1a3 and more than 5 µM at mALDH1a3.

On to `CC1(C)Cc2cc(Nc3ccc4cnccc4n3)ccc2NC1=O` [Compound 95, 3,3-dimethyl-6-(1,6-naphthyridin-2-ylamino)-1,4-dihydroquinolin-2-one], for which the IC50 at ALDH1a3 and on mALDH1a3 was more than 5 µM throughout.

With `Cc1ccc(Nc2ccc3c(c2)CC(C)(C)C(=O)N3)nc1C` [Compound 96, 6-[(5,6-dimethyl-2-pyridyl)amino]-3,3-dimethyl-1,4-dihydroquinolin-2-one], the IC50 at ALDH1a3 and at mALDH1a3 was more than 5 µM each time.

`CC1(C)Cc2cc(Nc3ccc(Cl)c(Cl)n3)ccc2NC1=O` [Compound 97, 6-[(5,6-dichloro-2-pyridyl)amino]-3,3-dimethyl-1,4-dihydroquinolin-2-one]: the results for the IC50 at ALDH1a3 and on mALDH1a3 were 1 to 5 µM and more than 5 µM, respectively.

In the case of `CC1(C)Cc2cc(Nc3nc4ccccc4[nH]3)ccc2NC1=O` [Compound 98, 6-(1H-benzimidazol-2-ylamino)-3,3-dimethyl-1,4-dihydroquinolin-2-one], the IC50 at ALDH1a3 and at mALDH1a3 was 1 to 5 µM each time.

On to `CC1(C)Cc2cc(Nc3nc4ccccc4o3)ccc2NC1=O` [Compound 99, 6-(1,3-benzoxazol-2-ylamino)-3,3-dimethyl-1,4-dihydroquinolin-2-one], for which the IC50 on ALDH1a3 and on mALDH1a3 was 0.25 to 1 µM in each case.

Consider `N#Cc1cccc2ncc(Nc3ccc4c(c3)CCC(=O)N4)cc12` [Compound 100, 3-[(2-oxo-3,4-dihydro-1H-quinolin-6-yl)amino]quinoline-5-carbonitrile], for which the IC50 at ALDH1a3 and at mALDH1a3 was more than 5 µM in each case.

Take `Cc1cccc2ncc(Nc3ccc4c(c3)CCC(=O)N4)cc12` [Compound 101, 6-[(5-methyl-3-quinolyl)amino]-3,4-dihydro-1H-quinolin-2-one]: the IC50 at ALDH1a3 and at mALDH1a3 was 1 to 5 µM in each case.

Consider `O=S1(=O)CCc2cc(Nc3ccc4ccccc4n3)ccc2N1` [Compound 102], for which the 50% inhibitory concentration (IC50) at ALDH1a3 and at mALDH1a3 was more than 5 µM each time.

Turning to `CC1(C)Cc2cc(Nc3ccc4cnccc4c3)ccc2NC1=O` [Compound 103, 6-(6-isoquinolylamino)-3,3-dimethyl-1,4-dihydroquinolin-2-one], the IC50 on ALDH1a3 and at mALDH1a3 was more than 5 µM each time.

For `CC1(C)Cc2cc(Nc3ccc4ccncc4c3)ccc2NC1=O` [Compound 104, 6-(7-isoquinolylamino)-3,3-dimethyl-1,4-dihydroquinolin-2-one], the IC50 at ALDH1a3 and at mALDH1a3 was more than 5 µM in each case.

As for `CC1(C)Cc2cc(NC3COc4ccccc4C3)ccc2NC1=O` (stereo not drawn) [Compound 105, 6-(chroman-3-ylamino)-3,3-dimethyl-1,4-dihydroquinolin-2-one], the IC50 at ALDH1a3 and on mALDH1a3 was more than 5 µM each time.

Take `CC1(C)Cc2cc(NN3CCC(c4ccccc4)C3=O)ccc2NC1=O` (stereo not drawn) [Compound 106]: the IC50 on ALDH1a3 and on mALDH1a3 was more than 5 µM in each case.

As for `CC1(C)Cc2cc(Nc3ncc4ccccc4n3)c(F)cc2NC1=O` [Compound 108, 7-fluoro-3,3-dimethyl-6-(quinazolin-2-ylamino)-1,4-dihydroquinolin-2-one], the IC50 on ALDH1a3 lay in the range of 1 to 5 µM; at mALDH1a3, 0.25 to 1 µM.

As to `CC1(C)Cc2cc(Nc3cnc4ccccc4n3)c(F)cc2NC1=O` [Compound 109, 7-fluoro-3,3-dimethyl-6-(quinoxalin-2-ylamino)-1,4-dihydroquinolin-2-one], the IC50 at ALDH1a3 was 0.1 to 0.25 µM; on mALDH1a3 it was less than 0.1 µM.

Turning to `Cc1cccc2ccc(Nc3ccc4c(c3)CC(C)(C)C(=O)N4)nc12` [Compound 111], the IC50 on ALDH1a3 and on mALDH1a3 was more than 5 µM throughout.

Turning to `CC1(C)Cc2cc(Nc3ccc4c(Cl)cccc4n3)ccc2NC1=O` [Compound 112, 6-[(5-chloro-2-quinolyl)amino]-3,3-dimethyl-1,4-dihydroquinolin-2-one], the IC50 on ALDH1a3 and on mALDH1a3 was 0.25 to 1 µM each time.

In the case of `Cn1ccc2nc(Nc3ccc4c(c3)CC(C)(C)C(=O)N4)ccc21` [Compound 113, 3,3-dimethyl-6-[(1-methylpyrrolo[3,2-b]pyridin-5-yl)amino]-1,4-dihydroquinolin-2-one], the IC50 at ALDH1a3 and at mALDH1a3 was more than 5 µM each time.

For `CC1(C)Cc2cc(Nc3ccc4c(c3)NC(=O)CC4)ccc2NC1=O` [Compound 114, 3,3-dimethyl-6-[(2-oxo-3,4-dihydro-1H-quinolin-7-yl)amino]-1,4-dihydroquinolin-2-one], the IC50 on ALDH1a3 and on mALDH1a3 was more than 5 µM throughout.

`CC1(C)Cc2cc(Nc3c[nH]c4ccccc4c3=O)ccc2NC1=O` [Compound 115, 3,3-dimethyl-6-[(4-oxo-1H-quinolin-3-yl)amino]-1,4-dihydroquinolin-2-one]: the IC50 at ALDH1a3 and at mALDH1a3 was more than 5 µM throughout.

In the case of `CC1(C)Cc2cc(Nc3nc(=O)c4ccccc4[nH]3)ccc2NC1=O` [Compound 116, 2-[(3,3-dimethyl-2-oxo-1,4-dihydroquinolin-6-yl)amino]-1H-quinazolin-4-one], the values for the IC50 at ALDH1a3 and at mALDH1a3 were 0.25 to 1 µM and 1 to 5 µM, respectively.

With `CC1(C)Cc2cc(Nc3cnc4ccc(C(=O)O)cc4n3)ccc2NC1=O` [Compound 118, 3-[(3,3-dimethyl-2-oxo-1,4-dihydroquinolin-6-yl)amino]quinoxaline-6-carboxylic acid], the IC50 at ALDH1a3 and on mALDH1a3 was more than 5 µM each time.

Regarding `O=C1CCc2cc(Oc3ncc4ccccc4n3)ccc2N1` [Compound 119, 6-quinazolin-2-yloxy-3,4-dihydro-1H-quinolin-2-one], the IC50 at ALDH1a3 and at mALDH1a3 was more than 5 µM throughout.

With `COC(=O)c1ccc2ncc(Nc3ccc4c(c3)CC(C)(C)C(=O)N4)nc2c1` [Compound 120, methyl 3-[(3,3-dimethyl-2-oxo-1,4-dihydroquinolin-6-yl)amino]quinoxaline-6-carboxylate], the IC50 at ALDH1a3 and on mALDH1a3 was more than 5 µM throughout.

In the case of `CC1(C)Cc2cc(Nc3cccc(Cl)n3)ccc2NC1=O` [Compound 122, 6-[(6-chloro-2-pyridyl)amino]-3,3-dimethyl-1,4-dihydroquinolin-2-one], the IC50 on ALDH1a3 and on mALDH1a3 was more than 5 µM each time.

Turning to `CC1(C)Cc2cc(Nc3ccc(Cl)cn3)ccc2NC1=O` [Compound 123, 6-[(5-chloro-2-pyridyl)amino]-3,3-dimethyl-1,4-dihydroquinolin-2-one], the IC50 at ALDH1a3 and at mALDH1a3 was more than 5 µM each time.

Regarding `CC1(C)Cc2cc(Nc3cc(Cl)c(Cl)cn3)ccc2NC1=O` [Compound 125, 6-[(4,5-dichloro-2-pyridyl)amino]-3,3-dimethyl-1,4-dihydroquinolin-2-one], the IC50 at ALDH1a3 was 0.25 to 1 µM; on mALDH1a3 it was more than 5 µM.

Consider `O=C1CCc2cc(Nc3cnc4ccccc4n3)ncc2N1` [Compound 126, 6-(quinoxalin-2-ylamino)-3,4-dihydro-1H-1,7-naphthyridin-2-one], for which the IC50 on ALDH1a3 was 0.25 to 1 µM; on mALDH1a3, less than 0.1 µM.

In the case of `CC1(C)Cc2cc(Nc3ccc4c(n3)CCCC4=O)ccc2NC1=O` [Compound 127, 3,3-dimethyl-6-[(5-oxo-7,8-dihydro-6H-quinolin-2-yl)amino]-1,4-dihydroquinolin-2-one], the IC50 was 1 to 5 µM at ALDH1a3 and more than 5 µM on mALDH1a3.

Turning to `Cc1nc(Nc2ccc3c(c2)CC(C)(C)C(=O)N3)nc2ccccc12` [Compound 132, 3,3-dimethyl-6-[(4-methylquinazolin-2-yl)amino]-1,4-dihydroquinolin-2-one], the IC50 on ALDH1a3 and at mALDH1a3 was 0.25 to 1 µM in each case.

Turning to `Cc1cc2ccccc2nc1Nc1ccc2c(c1)CC(C)(C)C(=O)N2` [Compound 134], the IC50 on ALDH1a3 and on mALDH1a3 was 0.25 to 1 µM throughout.
